This note sets out measurements from ChEMBL document CHEMBL5465560, “Selectivity Literature for EUbOPEN Chemogenomic Library” (2024).

The structures appear in SMILES notation.

For assay [1], the target named is Casein kinase II subunit alpha' (Homo sapiens) (UniProt P19784). In words: Selectivity interaction (Kinase panel (Z-LYTE Assay)) EUB0001632a CSNK2A2. The conditions noted are these: at 10 µM.
The target of assay [2] is T1, Phosphorylase b kinase gamma catalytic chain, liver/testis isoform (Homo sapiens) (UniProt P15735).
T1 sequence (whole entry): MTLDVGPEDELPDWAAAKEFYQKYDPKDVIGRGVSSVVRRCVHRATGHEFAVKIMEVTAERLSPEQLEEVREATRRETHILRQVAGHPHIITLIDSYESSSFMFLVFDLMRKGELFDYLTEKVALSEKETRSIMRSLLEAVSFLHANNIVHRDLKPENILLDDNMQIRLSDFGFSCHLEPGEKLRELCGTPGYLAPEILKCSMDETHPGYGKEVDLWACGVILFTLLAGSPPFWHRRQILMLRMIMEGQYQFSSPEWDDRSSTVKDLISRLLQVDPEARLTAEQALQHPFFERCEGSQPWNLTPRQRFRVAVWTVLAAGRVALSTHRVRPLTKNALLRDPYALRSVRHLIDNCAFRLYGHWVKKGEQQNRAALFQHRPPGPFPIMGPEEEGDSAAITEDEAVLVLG
In words: Selectivity interaction (Kinase panel (Z-LYTE Assay)) EUB0001632a PHKG2. The following applies: at 10 µM.

The target in assay [3] is T2, Serine/threonine-protein kinase Nek2 (Homo sapiens) (UniProt P51955).
T2 sequence (whole entry): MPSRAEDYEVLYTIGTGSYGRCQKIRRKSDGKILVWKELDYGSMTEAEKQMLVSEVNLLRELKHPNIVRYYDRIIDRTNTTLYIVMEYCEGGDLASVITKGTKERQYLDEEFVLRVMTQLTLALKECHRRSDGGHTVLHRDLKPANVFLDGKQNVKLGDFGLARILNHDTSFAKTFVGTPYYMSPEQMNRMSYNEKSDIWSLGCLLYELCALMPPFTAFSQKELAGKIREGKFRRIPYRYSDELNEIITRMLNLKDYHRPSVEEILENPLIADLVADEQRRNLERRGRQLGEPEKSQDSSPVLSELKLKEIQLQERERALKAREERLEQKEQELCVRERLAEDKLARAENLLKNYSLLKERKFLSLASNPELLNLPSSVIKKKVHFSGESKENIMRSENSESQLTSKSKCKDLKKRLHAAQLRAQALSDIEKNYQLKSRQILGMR
The following applies: at 10 µM.

Assay [4] concerns the target T3, Mitogen-activated protein kinase kinase kinase kinase 2 (Homo sapiens) (UniProt Q12851).
T3 sequence (whole entry): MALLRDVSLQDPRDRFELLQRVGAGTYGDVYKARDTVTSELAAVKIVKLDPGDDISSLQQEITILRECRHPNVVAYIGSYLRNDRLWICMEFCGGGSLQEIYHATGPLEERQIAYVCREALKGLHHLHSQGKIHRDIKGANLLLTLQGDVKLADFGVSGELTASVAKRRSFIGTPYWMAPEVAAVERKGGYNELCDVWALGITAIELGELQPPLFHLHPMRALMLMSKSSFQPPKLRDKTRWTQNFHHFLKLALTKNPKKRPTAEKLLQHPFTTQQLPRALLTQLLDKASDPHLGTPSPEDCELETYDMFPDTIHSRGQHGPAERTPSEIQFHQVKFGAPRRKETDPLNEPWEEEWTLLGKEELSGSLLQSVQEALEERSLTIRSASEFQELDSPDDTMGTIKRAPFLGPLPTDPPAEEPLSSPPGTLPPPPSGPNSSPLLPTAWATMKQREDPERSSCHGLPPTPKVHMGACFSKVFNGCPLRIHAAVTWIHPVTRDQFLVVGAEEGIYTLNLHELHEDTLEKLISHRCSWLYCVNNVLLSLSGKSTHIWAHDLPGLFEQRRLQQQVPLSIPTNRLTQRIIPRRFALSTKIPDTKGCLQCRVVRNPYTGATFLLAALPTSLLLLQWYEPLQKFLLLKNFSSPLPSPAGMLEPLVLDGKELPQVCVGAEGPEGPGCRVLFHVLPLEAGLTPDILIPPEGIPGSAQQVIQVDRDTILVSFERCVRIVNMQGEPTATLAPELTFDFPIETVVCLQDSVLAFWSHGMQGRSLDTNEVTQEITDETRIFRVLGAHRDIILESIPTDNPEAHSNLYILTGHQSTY
In words: Selectivity interaction (KinomeScan (DiscoverX)) EUB0000666a MAP4K2. The following applies: at 10 µM.

The target of assay [5] is Calcium/calmodulin-dependent protein kinase kinase 2 (Homo sapiens) (UniProt Q96RR4). In words: Selectivity interaction (KinomeScan (DiscoverX)) EUB0000655a CAMKK2. The following applies: at 10 µM.
Chain of Calcium/calmodulin-dependent protein kinase kinase 2 (Homo sapiens) (Q96RR4 2-588 limits assumed): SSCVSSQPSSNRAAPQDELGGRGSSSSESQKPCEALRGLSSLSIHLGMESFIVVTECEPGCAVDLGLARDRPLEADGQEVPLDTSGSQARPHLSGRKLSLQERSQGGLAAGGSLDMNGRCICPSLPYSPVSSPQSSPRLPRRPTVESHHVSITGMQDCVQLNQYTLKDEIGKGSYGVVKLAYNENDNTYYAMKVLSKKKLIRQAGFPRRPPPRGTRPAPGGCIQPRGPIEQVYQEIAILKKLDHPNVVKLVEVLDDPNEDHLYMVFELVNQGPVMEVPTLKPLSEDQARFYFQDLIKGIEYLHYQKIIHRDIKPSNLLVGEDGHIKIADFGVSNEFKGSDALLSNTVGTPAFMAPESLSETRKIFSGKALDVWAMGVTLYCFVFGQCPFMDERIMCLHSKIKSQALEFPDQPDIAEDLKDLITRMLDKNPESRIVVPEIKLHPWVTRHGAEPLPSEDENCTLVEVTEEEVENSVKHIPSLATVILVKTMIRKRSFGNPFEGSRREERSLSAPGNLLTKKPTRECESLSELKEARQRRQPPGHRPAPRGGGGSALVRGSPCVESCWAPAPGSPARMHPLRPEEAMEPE
Assay [6] addresses Cyclin-dependent kinase 14 (Homo sapiens) (UniProt O94921). In words: Selectivity interaction (KinomeScan (DiscoverX)) EUB0000655a CDK14. The conditions noted are these: at 10 µM.
Assay [7] has as its target Serine/threonine-protein kinase PAK 3 (Homo sapiens) (UniProt O75914). The assay can be described thus: Selectivity interaction (KinomeScan (DiscoverX)) EUB0001619a PAK3. The following applies: at 1 µM.
Assay [8] deals with Serine/threonine-protein kinase PAK 6 (Homo sapiens) (UniProt Q9NQU5). The assay can be described thus: Selectivity interaction (Kinase panel (Invitrogen)) EUB0000639a PAK6. The following applies: at 200 nM.
Chain of Serine/threonine-protein kinase PAK 6 (Homo sapiens) (Q9NQU5 whole entry, looked up): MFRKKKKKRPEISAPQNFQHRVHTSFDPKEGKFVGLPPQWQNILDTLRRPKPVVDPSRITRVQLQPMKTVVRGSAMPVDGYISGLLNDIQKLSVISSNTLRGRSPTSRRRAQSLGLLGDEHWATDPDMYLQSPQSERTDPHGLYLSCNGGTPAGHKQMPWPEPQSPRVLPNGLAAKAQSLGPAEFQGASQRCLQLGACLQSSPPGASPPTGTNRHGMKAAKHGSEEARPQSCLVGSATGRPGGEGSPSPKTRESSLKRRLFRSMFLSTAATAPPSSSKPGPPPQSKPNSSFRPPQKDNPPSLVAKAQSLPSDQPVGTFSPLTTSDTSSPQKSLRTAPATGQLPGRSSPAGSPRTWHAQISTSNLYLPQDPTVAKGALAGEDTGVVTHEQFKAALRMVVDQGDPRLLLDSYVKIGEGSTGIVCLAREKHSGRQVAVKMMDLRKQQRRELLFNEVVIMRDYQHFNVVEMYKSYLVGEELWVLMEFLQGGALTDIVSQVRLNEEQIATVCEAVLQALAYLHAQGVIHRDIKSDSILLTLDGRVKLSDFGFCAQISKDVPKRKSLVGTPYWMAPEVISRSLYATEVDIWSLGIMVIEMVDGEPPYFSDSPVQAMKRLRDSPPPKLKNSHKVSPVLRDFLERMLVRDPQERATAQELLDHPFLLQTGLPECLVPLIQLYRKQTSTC
The target in assay [9] is T3, Mitogen-activated protein kinase kinase kinase kinase 2 (Homo sapiens). In words: Selectivity interaction (ActivX KiNativ screen (kinase selectivity in THP-1 cell lysates)) EUB0000639a MAP4K2. The format is subcellular. The following applies: lysate, at 0.04 µM.
For assay [10], the target named is Serine/threonine-protein kinase 38-like (Homo sapiens) (UniProt Q9Y2H1). In words: Selectivity interaction (KinomeScan (DiscoverX)) EUB0001049a STK38L. The conditions noted are these: at 1 µM.
Chain of Serine/threonine-protein kinase 38-like (Homo sapiens) (Q9Y2H1 2-464 limits assumed): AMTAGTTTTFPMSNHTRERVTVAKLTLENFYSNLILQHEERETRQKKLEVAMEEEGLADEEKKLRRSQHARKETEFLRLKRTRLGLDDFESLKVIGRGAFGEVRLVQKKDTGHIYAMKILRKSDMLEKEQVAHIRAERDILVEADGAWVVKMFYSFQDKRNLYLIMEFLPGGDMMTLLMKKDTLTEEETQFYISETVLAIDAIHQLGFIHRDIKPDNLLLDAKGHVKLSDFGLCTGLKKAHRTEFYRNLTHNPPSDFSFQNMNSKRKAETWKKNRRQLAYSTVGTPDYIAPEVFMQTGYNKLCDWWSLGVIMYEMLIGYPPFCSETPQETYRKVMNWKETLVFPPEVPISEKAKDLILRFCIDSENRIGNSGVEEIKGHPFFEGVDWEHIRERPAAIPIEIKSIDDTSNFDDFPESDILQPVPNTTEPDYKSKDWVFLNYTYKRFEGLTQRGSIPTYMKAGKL
In assay [11] the target is Leukocyte tyrosine kinase receptor (Homo sapiens, UniProt P29376). In words: Selectivity interaction (KinomeScan (DiscoverX)) EUB0000092b LTK. The following applies: at 10 µM.
Chain of Leukocyte tyrosine kinase receptor (P29376 whole entry): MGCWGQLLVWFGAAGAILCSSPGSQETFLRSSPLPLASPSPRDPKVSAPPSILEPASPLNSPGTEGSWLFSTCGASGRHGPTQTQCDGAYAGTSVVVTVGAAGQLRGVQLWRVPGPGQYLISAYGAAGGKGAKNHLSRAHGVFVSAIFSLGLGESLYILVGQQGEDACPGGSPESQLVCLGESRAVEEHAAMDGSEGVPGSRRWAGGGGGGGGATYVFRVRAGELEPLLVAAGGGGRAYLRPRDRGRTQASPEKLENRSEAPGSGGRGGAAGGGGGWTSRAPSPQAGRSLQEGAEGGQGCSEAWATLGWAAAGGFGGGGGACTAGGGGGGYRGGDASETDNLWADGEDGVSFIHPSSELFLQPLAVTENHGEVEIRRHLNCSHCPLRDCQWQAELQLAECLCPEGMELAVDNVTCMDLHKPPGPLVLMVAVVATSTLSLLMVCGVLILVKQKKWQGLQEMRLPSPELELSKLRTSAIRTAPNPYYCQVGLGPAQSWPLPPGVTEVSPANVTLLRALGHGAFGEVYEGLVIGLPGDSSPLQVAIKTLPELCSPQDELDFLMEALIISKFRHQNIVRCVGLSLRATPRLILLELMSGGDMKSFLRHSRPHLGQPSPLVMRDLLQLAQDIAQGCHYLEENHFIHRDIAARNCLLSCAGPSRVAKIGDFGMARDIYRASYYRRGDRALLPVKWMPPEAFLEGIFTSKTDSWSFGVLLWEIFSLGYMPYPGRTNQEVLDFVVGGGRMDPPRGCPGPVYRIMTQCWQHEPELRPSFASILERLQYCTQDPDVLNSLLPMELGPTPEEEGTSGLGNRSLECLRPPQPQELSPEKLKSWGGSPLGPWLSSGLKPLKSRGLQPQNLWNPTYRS
A short description of assay [12]: Selectivity interaction (KinomeScan (DiscoverX)) EUB0000092b CDPK1. The conditions noted are these: at 10 µM.

Chain of Serine/threonine-protein kinase PAK 3 (Homo sapiens) (O75914 whole entry, looked up): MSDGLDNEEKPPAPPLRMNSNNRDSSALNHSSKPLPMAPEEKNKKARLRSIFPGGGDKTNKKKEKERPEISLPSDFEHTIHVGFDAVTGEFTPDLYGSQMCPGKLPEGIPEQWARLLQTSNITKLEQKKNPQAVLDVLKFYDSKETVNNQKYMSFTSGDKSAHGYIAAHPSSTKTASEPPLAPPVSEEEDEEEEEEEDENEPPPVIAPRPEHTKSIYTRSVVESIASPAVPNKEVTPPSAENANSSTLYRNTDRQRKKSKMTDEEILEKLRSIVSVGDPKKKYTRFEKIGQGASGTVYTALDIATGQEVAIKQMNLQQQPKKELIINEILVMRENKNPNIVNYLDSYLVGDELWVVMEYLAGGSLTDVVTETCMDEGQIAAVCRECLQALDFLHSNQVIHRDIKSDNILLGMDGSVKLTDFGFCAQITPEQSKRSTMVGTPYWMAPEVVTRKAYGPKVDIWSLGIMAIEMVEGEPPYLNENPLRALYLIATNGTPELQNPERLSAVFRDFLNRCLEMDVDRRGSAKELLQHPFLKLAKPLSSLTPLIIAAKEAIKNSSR
Chain of Casein kinase II subunit alpha' (Homo sapiens) (P19784 whole entry, looked up, canonical isoform): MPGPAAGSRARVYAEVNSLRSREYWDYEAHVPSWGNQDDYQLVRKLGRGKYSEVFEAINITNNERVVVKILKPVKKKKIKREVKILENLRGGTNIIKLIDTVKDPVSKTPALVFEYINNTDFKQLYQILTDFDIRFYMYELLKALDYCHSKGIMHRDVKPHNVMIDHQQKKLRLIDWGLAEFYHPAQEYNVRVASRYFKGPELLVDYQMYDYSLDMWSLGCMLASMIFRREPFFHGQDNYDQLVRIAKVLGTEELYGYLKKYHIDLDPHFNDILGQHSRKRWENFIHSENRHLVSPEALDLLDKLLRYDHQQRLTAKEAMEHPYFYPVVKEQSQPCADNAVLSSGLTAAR
Chain of Cyclin-dependent kinase 14 (Homo sapiens) (O94921 whole entry): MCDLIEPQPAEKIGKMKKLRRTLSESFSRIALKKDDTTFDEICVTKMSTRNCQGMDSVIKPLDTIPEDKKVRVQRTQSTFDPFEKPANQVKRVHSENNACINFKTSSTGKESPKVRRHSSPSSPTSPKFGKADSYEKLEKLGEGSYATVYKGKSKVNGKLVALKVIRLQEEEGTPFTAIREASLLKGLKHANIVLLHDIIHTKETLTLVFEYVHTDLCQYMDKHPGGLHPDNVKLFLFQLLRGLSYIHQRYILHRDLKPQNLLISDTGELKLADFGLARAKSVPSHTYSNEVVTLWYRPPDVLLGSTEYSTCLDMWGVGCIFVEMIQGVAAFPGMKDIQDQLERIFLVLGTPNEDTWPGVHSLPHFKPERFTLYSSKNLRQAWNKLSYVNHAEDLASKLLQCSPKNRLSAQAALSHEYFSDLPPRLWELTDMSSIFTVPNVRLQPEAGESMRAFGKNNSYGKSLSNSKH

As to `Cn1cc(-n2cnc3c(NCc4nc5cc(Cl)c(Cl)cc5[nH]4)nc(N4CCOCC4)nc32)cn1`, the values for the % of control in assay [1] and in assay [2] were 1.8% and 4.25%, respectively.
The compound `Cc1cc([C@@H](C)Nc2ccccc2C(=O)O)c2nc(N3CCOCC3)cc(=O)n2c1` [AZD-6482] displayed a % of control in assay [3] of 71%.
In turn, `O=C(NOC[C@H](O)CO)c1ccc(F)c(F)c1Nc1ccc(I)cc1F` yielded a % of control in assay [4] of 100%.
In the case of `CN(C)CCOc1ccc(-c2nc(-c3ccncc3)c(-c3ccc4c(c3)CC/C4=N\O)[nH]2)cc1`, the results for the % of control in [5] and in [6] were 88% and 100%, respectively.
Take `N#Cc1cccc(-c2c[nH]c3ncnc(N4CCOCC4)c23)c1`: the % of control in assay [7] stood at 74%.
On to `CC[C@@H]1[C@H](F)C(=O)N[C@@H]1COc1nccc2cc(C(N)=O)c(OC)cc12` [ZIMLOVISERTIB], for which the % of inhibition in [8] is 5.8%; in assay [9], -1%.
Compound `COc1cc(Nc2nc(C)cc(-c3cnn4nc(OC)ccc34)n2)cc(C(F)(F)F)c1` displayed a % of control in assay [10] of 100%.
With `CCC(=O)N1CCN(c2ccc(-n3c(=O)ccc4cnc5ccc(-c6cnc7ccccc7c6)cc5c43)cc2C(F)(F)F)CC1`, the values for the % of control in [11] and in assay [12] were 77% and 36%, respectively.
